As a reminder, the Kd is the equilibrium constant for the complex coming apart.

The record followed here is article PMC12951562, “SH2scan: Mapping SH2 Domain-Ligand Binding Selectivity for Inhibitors and Degraders” (Journal of Medicinal Chemistry, 2026).

Holding throughout (experiment): biochemical
Common to all, as to type: binding

The target in test [1] is T1, GRB14 (Homo sapiens, UniProt Q14449).
T1 construct: the DNA-tagged SH2 domain concentrations used in this study were <0.1 nM; made in house; host or cells: HEK293 (transient transfection; unpurified extract)
T1 sequence (Q14449 439-535 limits assumed): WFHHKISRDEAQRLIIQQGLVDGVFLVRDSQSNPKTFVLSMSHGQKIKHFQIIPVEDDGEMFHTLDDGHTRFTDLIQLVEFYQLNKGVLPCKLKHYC

Test [2] deals with T2, PLCG2(SH2dom.N-term.) (Homo sapiens, UniProt P16885).
T2 construct: SH2dom.N-term. denotes SH2 domain closest to N-terminus of protein; made in house; host or cells: HEK293 (transient transfection, unpurified extract)
T2 sequence (P16885 532-635 limits assumed): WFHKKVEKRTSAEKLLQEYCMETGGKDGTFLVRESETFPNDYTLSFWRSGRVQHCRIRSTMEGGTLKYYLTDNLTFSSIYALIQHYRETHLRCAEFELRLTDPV

Test [3] concerns the target T3, SHIP2 (Homo sapiens, UniProt O15357).
T3 construct: made in house; host or cells: HEK293 (transient transfection), unpurified extract
T3 sequence (O15357 1-1258): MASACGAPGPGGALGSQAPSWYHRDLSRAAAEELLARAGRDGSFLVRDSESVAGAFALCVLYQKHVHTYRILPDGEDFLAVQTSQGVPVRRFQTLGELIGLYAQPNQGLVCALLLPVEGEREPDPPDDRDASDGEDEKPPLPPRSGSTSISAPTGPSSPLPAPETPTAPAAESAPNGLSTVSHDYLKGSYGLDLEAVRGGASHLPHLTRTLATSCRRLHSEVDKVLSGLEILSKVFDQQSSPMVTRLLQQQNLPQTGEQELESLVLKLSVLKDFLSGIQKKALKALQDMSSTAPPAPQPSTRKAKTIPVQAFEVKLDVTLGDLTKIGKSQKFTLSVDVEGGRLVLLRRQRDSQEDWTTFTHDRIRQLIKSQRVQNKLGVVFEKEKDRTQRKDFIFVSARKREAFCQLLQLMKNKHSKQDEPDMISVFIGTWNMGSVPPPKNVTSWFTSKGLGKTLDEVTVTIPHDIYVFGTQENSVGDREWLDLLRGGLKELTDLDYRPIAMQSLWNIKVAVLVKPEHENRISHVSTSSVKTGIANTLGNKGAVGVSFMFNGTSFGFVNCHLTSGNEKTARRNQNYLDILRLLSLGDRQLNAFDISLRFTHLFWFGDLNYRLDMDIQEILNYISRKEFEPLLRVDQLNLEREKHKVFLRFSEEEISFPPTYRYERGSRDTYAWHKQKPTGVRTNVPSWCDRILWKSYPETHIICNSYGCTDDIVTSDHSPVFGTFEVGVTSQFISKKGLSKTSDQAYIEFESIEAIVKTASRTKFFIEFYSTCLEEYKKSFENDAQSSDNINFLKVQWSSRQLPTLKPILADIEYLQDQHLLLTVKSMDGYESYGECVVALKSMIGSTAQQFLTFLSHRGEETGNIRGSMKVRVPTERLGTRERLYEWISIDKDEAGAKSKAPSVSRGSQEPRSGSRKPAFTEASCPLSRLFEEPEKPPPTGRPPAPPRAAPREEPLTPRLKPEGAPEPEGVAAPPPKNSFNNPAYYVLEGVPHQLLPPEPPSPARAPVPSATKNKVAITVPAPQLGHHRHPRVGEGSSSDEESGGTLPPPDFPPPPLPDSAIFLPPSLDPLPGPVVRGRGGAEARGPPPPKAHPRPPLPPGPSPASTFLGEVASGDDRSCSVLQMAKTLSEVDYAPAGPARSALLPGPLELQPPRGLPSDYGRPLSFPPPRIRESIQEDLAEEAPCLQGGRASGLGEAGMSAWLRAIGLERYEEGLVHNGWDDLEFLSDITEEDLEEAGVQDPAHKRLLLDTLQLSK

In test [4] the target is T4, SHIP1 (Homo sapiens, UniProt Q92835).
T4 construct: made in house; host or cells: HEK293 (transient transfection), unpurified extract
T4 sequence (Q92835 1-1189): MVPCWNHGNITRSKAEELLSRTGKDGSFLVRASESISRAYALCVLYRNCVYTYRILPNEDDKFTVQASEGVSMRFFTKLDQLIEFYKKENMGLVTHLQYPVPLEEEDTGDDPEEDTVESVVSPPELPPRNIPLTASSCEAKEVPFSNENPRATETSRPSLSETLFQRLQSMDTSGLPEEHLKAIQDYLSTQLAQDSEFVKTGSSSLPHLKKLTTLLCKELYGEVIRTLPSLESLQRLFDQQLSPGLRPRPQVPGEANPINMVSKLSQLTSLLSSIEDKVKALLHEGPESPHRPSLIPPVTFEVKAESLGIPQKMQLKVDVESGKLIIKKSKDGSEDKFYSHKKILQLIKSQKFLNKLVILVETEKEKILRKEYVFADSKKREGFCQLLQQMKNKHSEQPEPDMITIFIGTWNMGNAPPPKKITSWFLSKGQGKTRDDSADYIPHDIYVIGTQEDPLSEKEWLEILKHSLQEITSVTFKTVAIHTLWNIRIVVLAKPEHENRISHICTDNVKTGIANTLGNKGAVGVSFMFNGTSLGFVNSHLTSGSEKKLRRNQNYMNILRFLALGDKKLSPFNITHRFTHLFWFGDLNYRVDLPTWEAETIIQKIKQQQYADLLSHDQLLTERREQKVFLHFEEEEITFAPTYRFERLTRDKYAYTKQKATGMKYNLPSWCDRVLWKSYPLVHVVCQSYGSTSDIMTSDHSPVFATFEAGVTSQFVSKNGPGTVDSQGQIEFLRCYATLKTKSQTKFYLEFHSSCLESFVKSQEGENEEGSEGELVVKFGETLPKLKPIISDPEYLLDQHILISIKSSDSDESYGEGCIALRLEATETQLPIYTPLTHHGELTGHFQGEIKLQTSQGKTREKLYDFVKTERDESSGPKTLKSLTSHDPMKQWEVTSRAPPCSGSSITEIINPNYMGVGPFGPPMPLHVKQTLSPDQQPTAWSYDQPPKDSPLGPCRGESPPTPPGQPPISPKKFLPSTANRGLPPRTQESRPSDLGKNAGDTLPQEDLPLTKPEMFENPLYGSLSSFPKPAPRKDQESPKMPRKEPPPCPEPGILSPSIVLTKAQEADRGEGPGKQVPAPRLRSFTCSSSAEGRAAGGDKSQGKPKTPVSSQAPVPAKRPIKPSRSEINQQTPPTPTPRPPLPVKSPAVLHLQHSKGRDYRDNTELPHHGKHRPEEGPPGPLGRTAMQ

In test [5] the target is T5, CRK (Homo sapiens, UniProt P46108).
T5 construct: the DNA-tagged SH2 domain concentrations used in this study were <0.1 nM; made in house; host or cells: HEK293 (transient transfection; unpurified extract)

Test [6] addresses T6, FES (Homo sapiens, UniProt P07332).
T6 construct: the DNA-tagged SH2 domain concentrations used in this study were <0.1 nM; made in house; host or cells: HEK293 (transient transfection; unpurified extract)

Non-standard residues stand in square brackets, D forms with d. Residues, ends and D or L forms follow the SMILES beside them. pY = N[C@@H](Cc1ccc(OP(=O)(O)O)cc1)C(=O)O

T5 sequence (P46108 13-118 limits assumed): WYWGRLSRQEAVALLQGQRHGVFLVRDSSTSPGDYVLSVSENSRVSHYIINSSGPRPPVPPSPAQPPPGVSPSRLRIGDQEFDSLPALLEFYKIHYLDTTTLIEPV
T6 sequence (P07332 460-549 limits assumed): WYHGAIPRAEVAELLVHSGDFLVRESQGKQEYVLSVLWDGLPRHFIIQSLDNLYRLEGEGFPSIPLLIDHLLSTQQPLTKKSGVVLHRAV

In test [1], `CSCC[C@H](NC(=O)[C@@H](NC(=O)[C@H](CCC(=O)O)NC(=O)[C@H](Cc1ccc(OP(=O)(O)O)cc1)NC(=O)[C@H](CC(C)C)NC(=O)[C@@H]1CCCN1C(=O)[C@H](CC(=O)O)NC(=O)[C@@H]1CCCN1C(C)=O)C(C)C)C(=O)N[C@@H](CC(C)C)C(=O)N[C@@H](CCCCN)C(=O)N[C@@H](CS)C(=O)N[C@@H](Cc1c[nH]c2ccccc12)C(=O)N[C@@H](CC(=O)O)C(N)=O` (Ac-PDPL[pY]EVMLKCWD-NH2) gave a Kd of 298 ± 131 nM.

`CC[C@H](C)[C@H](NC(=O)[C@@H](NC(=O)[C@H](CC(C)C)NC(=O)[C@H](Cc1ccc(OP(=O)(O)O)cc1)NC(=O)[C@H](CCCNC(=N)N)NC(=O)[C@H](CCC(N)=O)NC(=O)[C@@H]1CCCN1C(=O)[C@H](CC(=O)O)NC(C)=O)C(C)C)C(=O)N[C@@H](CCC(N)=O)C(=O)NCC(=O)N[C@@H](CC(=O)O)C(=O)N[C@@H](CCC(=O)O)C(=O)N[C@@H](CC(=O)O)C(N)=O` [Ac-DPQRpYLVIQGDED-NH2] (Ac-DPQR[pY]LVIQGDED-NH2) displayed a Kd in test [2] of 521 ± 25.4 nM.

As to `CC(=O)N[C@@H](CC(N)=O)C(=O)N[C@@H](CC(N)=O)C(=O)N[C@H](C(=O)N[C@@H](C)C(=O)N[C@@H](Cc1ccc(OP(=O)(O)O)cc1)C(=O)N[C@@H](CO)C(=O)N[C@@H](Cc1ccc(O)cc1)C(=O)N[C@@H](CC(C)C)C(=O)N[C@@H](CC(C)C)C(=O)N[C@@H](CC(N)=O)C(=O)N[C@@H](CCCNC(=N)N)C(N)=O)C(C)C` [Ac-NNVApYSYLLNR-NH2] (Ac-NNVA[pY]SYLLNR-NH2), the results for the dissociation constant (Kd) in test [3] and in test [4] were 3310 ± 622 nM and 241 ± 71.8 nM, respectively.

For `CC(=O)N[C@@H](CCC(=O)O)C(=O)N1CCC[C@H]1C(=O)N[C@@H](C)C(=O)N[C@@H](Cc1c[nH]cn1)C(=O)N[C@@H](C)C(=O)N[C@@H](Cc1ccc(OP(=O)(O)O)cc1)C(=O)N[C@@H](C)C(=O)N[C@@H](CCC(N)=O)C(=O)N1CCC[C@H]1C(=O)N[C@@H](CCC(N)=O)C(=O)N[C@H](C(=O)N[C@H](C(N)=O)[C@@H](C)O)[C@@H](C)O` [Ac-EPAHApYAQPQTT-NH2] (Ac-EPAHA[pY]AQPQTT-NH2), the dissociation constant Kd in test [5] came to 1520 ± 695 nM.

In test [6], `CC(=O)N[C@H](C(=O)N[C@@H](Cc1ccc(OP(=O)(O)O)cc1)C(=O)N[C@@H](CCC(=O)O)C(=O)N1CCC[C@H]1C(=O)N[C@H](C(=O)N[C@@H](CO)C(=O)N[C@@H](Cc1ccc(O)cc1)C(N)=O)C(C)C)C(C)C` [Ac-VpYEPVSY-NH2] (Ac-V[pY]EPVSY-NH2) registered a Kd of 711 ± 170 nM.
